Results reported in publication PMC8095338 (Neuro-oncology Advances, 2021).
“And” between values parts separate entries of the source, which are not always exact repeats. Equal entries are not always repeated. Where two headings read alike, the source gives them in different places.

Tests used:
[1] = Dose-finding study, plasma PK in wild-type minipigs; format: in vivo, minipig; details: for Cmax: female, WT minipig, plasma (data not shown)
Description: This was conducted to determine the dose required to reach the human equivalent therapeutic exposure. Human equivalent doses of 50, 75, 300, and 600 mg were tested. Each dose was administered orally to a 5-month-old wild-type female minipig. Blood was collected immediately prior to drug administration (T = 0) and 1, 2, 6, and 24 h after drug administration.

p-ERK = experiment: Immunohistochemistry for p-ERK in minipig tissues; format: in vivo
Description: Formalin-fixed paraffin-embedded minipig tissue including cerebral cortex, cross sections of optic nerve and sciatic nerve, and skin were sectioned. Immunohistochemical staining for phosphor-p44/p42 MAPK (ERK1/2) (Thr202/Tyr204) (Cell Signaling Technology Catalog #4370, Rabbit mAb, 1:100 dilution) was performed using 5 μm sections on a Thermo Fisher Scientific Autostainer 360 (Thermo Fisher Scientific). […] In the skin, epidermis was scored as no (0) or low (1) (<20 epidermal cells per 400× magnification) or high (2) (>20 epidermal cells per 400× magnification) immunoreactivity.

[2] = cited from earlier work; for maximum tolerated dose: twice daily
Tissue PK, LC-MS/MS = format: in vivo, minipig; details: for concentration at 2 h: po, Selumetinib concentration in tissues
Description: WT (n = 8) and NF1 (n = 8) minipigs received a single human equivalent oral dose of 450 mg (7.3 mg/kg). Untreated WT (n = 4) and NF1 (n = 4) minipigs were also enrolled as controls. All animals were euthanized 2 h after drug administration. Tissue samples were collected from each animal at the same approximate locations and divided for analysis.
Selumetinib PK studies were performed in plasma, skin, sciatic nerve, optic nerve, and brain. Plasma isolation was performed as described in a previous study.[13] […] Tissues were harvested and immediately transferred to cryovials and stored at −80°C until analysis.
Standard curves and controls were generated using corresponding untreated tissue. Skin tissue was treated with collagenase, and all organ tissues were homogenized. Liquid extraction with ethyl acetate was then performed, followed by analysis. […] The chromatographic separation was performed as described.[13] Mass spectrometric detection was performed using multiple reaction monitoring in positive ionization mode. […] Ion source gases 1 and 2 were set at 50 and 50 psi, respectively; the curtain gas was at 20 psi and the collision gas at 4 psi. […] Data acquisition was performed with analyst 1.4.1 software (MDS-SCIEX).

[3] = 2 h after single oral 7.3 mg/kg, P = .03
[4] = NF1 minipigs n = 8, 2 h after single oral 7.3 mg/kg
[5] = WT minipigs n = 8, 2 h after single oral 7.3 mg/kg
[6] = all 16 minipigs, 2 h after single oral 7.3 mg/kg
[7] = all 16 minipigs, 2 h after single oral 7.3 mg/kg, 7.3 mg/kg
[8] = individual NF1/F minipigs, 2 h after single oral 7.3 mg/kg, 7.3 mg/kg
[9] = individual NF1/M minipigs, 2 h after single oral 7.3 mg/kg, 7.3 mg/kg
[10] = individual WT/F minipigs, 2 h after single oral 7.3 mg/kg, 7.3 mg/kg
[11] = individual WT/M minipigs, 2 h after single oral 7.3 mg/kg, 7.3 mg/kg

Cn1cnc2c(F)c(Nc3ccc(Br)cc3Cl)c(C(=O)NOCCO)cc21 [selumetinib]
dose proportionality of selumetinib exposure ([1]; WT minipigs, from 75 to 300 mg human equivalent dose): dose proportional
Cmax ([1]; single oral 300 mg human equivalent dose): 1000 ng/mL
Cmax ([1]; single oral 600 mg human equivalent dose): 670 ng/mL
p-ERK by IHC in glial cells (p-ERK; NF1 minipig tissues, treated vs untreated): reduction in ERK phosphorylation
treated NF1 animals without reduction in ERK phosphorylation by IHC (p-ERK; cerebral white matter tracts, NF1 minipigs): 4 of 8
maximum tolerated dose ([2]; adult patients with advanced solid malignancy): 75 mg
maximum tolerated dose ([2]; pediatric patients with plexiform neurofibroma or low-grade glioma): 25 mg/m^2
confirmed partial response ([2]; pediatric patients, 25 mg/m^2 twice daily): 70 % of pediatric patients
mean selumetinib concentration in cerebral cortex, NF1 compared to WT minipigs (Tissue PK, LC-MS/MS; [3]): higher
mean selumetinib concentration in optic nerve, NF1 compared to WT minipigs (Tissue PK, LC-MS/MS; [3]): higher
Selumetinib concentration in tissues, Cerebral cortex, Range (NF1) (Tissue PK, LC-MS/MS; [4]): (20-105) ng/g
Selumetinib concentration in tissues, Optic nerve, Range (NF1) (Tissue PK, LC-MS/MS; [4]): (4-101) ng/g
Selumetinib concentration in tissues, Sciatic nerve, Range (NF1) (Tissue PK, LC-MS/MS; [4]): (5-36) ng/g
Selumetinib concentration in tissues, Skin, Range (NF1) (Tissue PK, LC-MS/MS; [4]): (14-155) ng/g
Selumetinib concentration in tissues, Cerebral cortex, Range (WT) (Tissue PK, LC-MS/MS; [5]): (15-76) ng/g
Selumetinib concentration in tissues, Optic nerve, Range (WT) (Tissue PK, LC-MS/MS; [5]): (7-46) ng/g
Selumetinib concentration in tissues, Sciatic nerve, Range (WT) (Tissue PK, LC-MS/MS; [5]): (6-51) ng/g
Selumetinib concentration in tissues, Skin, Range (WT) (Tissue PK, LC-MS/MS; [5]): (9-111) ng/g
Selumetinib concentration in tissues, Cerebral cortex, Range (All) (Tissue PK, LC-MS/MS; [6]): (15-105) ng/g
Selumetinib concentration in tissues, Optic nerve, Range (All) (Tissue PK, LC-MS/MS; [6]): (4-101) ng/g
Selumetinib concentration in tissues, Sciatic nerve, Range (All) (Tissue PK, LC-MS/MS; [6]): (5-51) ng/g
Selumetinib concentration in tissues, Skin, Range (All) (Tissue PK, LC-MS/MS; [6]): (9-155) ng/g
Selumetinib concentration in tissues, Cerebral cortex, Median (All) (Tissue PK, LC-MS/MS; [7]): 51 ng/g
Selumetinib concentration in tissues, Optic nerve, Median (All) (Tissue PK, LC-MS/MS; [7]): 36 ng/g
Selumetinib concentration in tissues, Sciatic nerve, Median (All) (Tissue PK, LC-MS/MS; [7]): 25 ng/g
Selumetinib concentration in tissues, Skin, Median (All) (Tissue PK, LC-MS/MS; [7]): 24 ng/g
Selumetinib concentration in tissues, Cerebral cortex (Tissue PK, LC-MS/MS; [8]): 63 ng/g and 105 ng/g and 101 ng/g and 20 ng/g
Selumetinib concentration in tissues, Optic nerve (Tissue PK, LC-MS/MS; [8]): 43 ng/g and 81 ng/g and 101 ng/g and 4 ng/g
Selumetinib concentration in tissues, Sciatic nerve (Tissue PK, LC-MS/MS; [8]): 20 ng/g and 10 ng/g and 17 ng/g and 5 ng/g
Selumetinib concentration in tissues, Skin (Tissue PK, LC-MS/MS; [8]): 36 ng/g and 155 ng/g and 14 ng/g and 17 ng/g
Selumetinib concentration in tissues, Cerebral cortex (Tissue PK, LC-MS/MS; [9]): 67 ng/g and 83 ng/g and 28 ng/g and 64 ng/g
Selumetinib concentration in tissues, Optic nerve (Tissue PK, LC-MS/MS; [9]): 59 ng/g and 34 ng/g
Selumetinib concentration in tissues, Sciatic nerve (Tissue PK, LC-MS/MS; [9]): 36 ng/g and 33 ng/g
Selumetinib concentration in tissues, Skin (Tissue PK, LC-MS/MS; [9]): 16 ng/g and 79 ng/g and 108 ng/g and 26 ng/g
Selumetinib concentration in tissues, Cerebral cortex (Tissue PK, LC-MS/MS; [10]): 26 ng/g and 42 ng/g and 76 ng/g and 47 ng/g
Selumetinib concentration in tissues, Optic nerve (Tissue PK, LC-MS/MS; [10]): 24 ng/g and 26 ng/g and 19 ng/g and 46 ng/g
Selumetinib concentration in tissues, Sciatic nerve (Tissue PK, LC-MS/MS; [10]): 46 ng/g and 38 ng/g and 36 ng/g and 16 ng/g
Selumetinib concentration in tissues, Skin (Tissue PK, LC-MS/MS; [10]): 22 ng/g and 111 ng/g and 81 ng/g and 12 ng/g
Selumetinib concentration in tissues, Cerebral cortex (Tissue PK, LC-MS/MS; [11]): 20 ng/g and 15 ng/g and 54 ng/g and 44 ng/g
Selumetinib concentration in tissues, Optic nerve (Tissue PK, LC-MS/MS; [11]): 35 ng/g and 7 ng/g and 32 ng/g and 36 ng/g
Selumetinib concentration in tissues, Sciatic nerve (Tissue PK, LC-MS/MS; [11]): 6 ng/g and 9 ng/g and 51 ng/g and 15 ng/g
Selumetinib concentration in tissues, Skin (Tissue PK, LC-MS/MS; [11]): 9 ng/g and 19 ng/g and 32 ng/g
concentration at 2 h (Tissue PK, LC-MS/MS; male, minipig, optic nerve, 7.3 mg/kg, Optic nerve, individual NF1/M minipigs, 2 h after single oral 7.3 mg/kg): 43 ng/g
concentration at 2 h (Tissue PK, LC-MS/MS; male, minipig, sciatic nerve, 7.3 mg/kg, Sciatic nerve, individual NF1/M minipigs, 2 h after single oral 7.3 mg/kg): 29 ng/g
Kp at 2 h (Tissue PK, LC-MS/MS; minipig, brain / plasma, minipigs, single oral 7.3 mg/kg, read-out: median brain–plasma ratio): 0.1
concentration at 2 h (Tissue PK, LC-MS/MS; minipig, cerebral cortex, 7.3 mg/kg, Cerebral cortex, Median (All), all 16 minipigs, 2 h after single oral 7.3 mg/kg): 66 ng/g
concentration at 2 h (Tissue PK, LC-MS/MS; minipig, cerebral cortex, 7.3 mg/kg, Cerebral cortex, Median (NF1), NF1 minipigs n = 8, 2 h after single oral 7.3 mg/kg): 66 ng/g
concentration at 2 h (Tissue PK, LC-MS/MS; minipig, cerebral cortex, 7.3 mg/kg, Cerebral cortex, Median (WT), WT minipigs n = 8, 2 h after single oral 7.3 mg/kg): 43 ng/g
concentration at 2 h (Tissue PK, LC-MS/MS; minipig, optic nerve, 7.3 mg/kg, Optic nerve, Median (All), all 16 minipigs, 2 h after single oral 7.3 mg/kg): 43 ng/g
concentration at 2 h (Tissue PK, LC-MS/MS; minipig, optic nerve, 7.3 mg/kg, Optic nerve, Median (NF1), NF1 minipigs n = 8, 2 h after single oral 7.3 mg/kg): 43 ng/g
